ChEMBL document CHEMBL4651402, “Screening of ~5500 FDA-approved drugs and clinical candidates for anti-SARS-CoV-2 activity” (2021)

System: SARS-CoV-2
Assay: microbe, parasite or virus in culture
Settings: Severe acute respiratory syndrome coronavirus 2, Vero C1008, 48 h

SMILES | IC50 | IC50 (read-out: pIC50 (converted))
COC(=O)Nc1nc2ccc(C(=O)C3CC3)cc2[nH]1 [CYCLOBENDAZOLE] | > 20 µM | > 20 µM
CN(C)CCC=C1c2ccccc2C=Cc2ccccc21 [CYCLOBENZAPRINE] | > 20 µM | > 20 µM
CC(=O)Oc1ccc(C(=C2CCCCC2)c2ccc(OC(C)=O)cc2)cc1 [CYCLOFENIL] | > 20 µM | > 20 µM
CC1(C)N=C(N)N=C(N)N1c1ccc(Cl)cc1 [CYCLOGUANIL] | > 20 µM | > 20 µM
NC1CCCCC1 [CYCLOHEXYLAMINE] | > 20 µM | > 20 µM
NC1(C(=O)O)CCCC1 [CYCLOLEUCINE] | > 20 µM | > 20 µM
CNC(C)CC1CCCC1 (stereo unspecified) [CYCLOPENTAMINE] | > 20 µM | > 20 µM
NS(=O)(=O)c1cc2c(cc1Cl)NC(CC1CCCC1)NS2(=O)=O (stereo unspecified) [CYCLOPENTHIAZIDE] | > 20 µM | > 20 µM
CN(C)CCOC(=O)C(c1ccccc1)C1(O)CCCC1 (stereo unspecified) [CYCLOPENTOLATE] | > 20 µM | > 20 µM
FC(F)(F)c1ccc2c(c1)N(CCCN1CCN(C3CC3)CC1)c1ccccc1S2 [CYCLOPHENAZINE] | > 20 µM | > 20 µM
O=P1(N(CCCl)CCCl)NCCCO1 (stereo unspecified) [CYCLOPHOSPHAMIDE ANHYDROUS] | > 20 µM | > 20 µM
N[C@@H]1CONC1=O [CYCLOSERINE] | > 20 µM | > 20 µM
NS(=O)(=O)c1cc2c(cc1Cl)NC(C1CC3C=CC1C3)NS2(=O)=O (stereo unspecified) [CYCLOTHIAZIDE] | > 20 µM | > 20 µM
COc1cc(/C=C2\CCC/C(=C\c3ccc(O)c(OC)c3)C2=O)ccc1O [CYCLOVALONE] | > 20 µM | > 20 µM
OC(CCN1CCCCC1)(c1ccccc1)C1CCCC1 (stereo unspecified) [CYCRIMINE] | > 20 µM | > 20 µM
[O-][N+]1=C(c2ccccc2)c2cc(Cl)ccc2N=C(NCC2CC2)C1 [CYPRAZEPAM] | > 20 µM | > 20 µM
CN1CCC(=C2c3ccccc3C=Cc3ccccc32)CC1 [CYPROHEPTADINE] | > 20 µM | > 20 µM
CC(=O)O[C@]1(C(C)=O)CC[C@H]2[C@@H]3C=C(Cl)C4=CC(=O)[C@@H]5C[C@@H]5[C@]4(C)[C@H]3CC[C@@]21C [CYPROTERONE ACETATE] | > 20 µM | > 20 µM
CC(=O)[C@@]1(O)CC[C@H]2[C@@H]3C=C(Cl)C4=CC(=O)[C@@H]5C[C@@H]5[C@]4(C)[C@H]3CC[C@@]21C [CYPROTERONE] | > 20 µM | > 20 µM
Nc1nc(N)nc(NC2CC2)n1 [CYROMAZINE] | > 20 µM | > 20 µM
NCCS [CYSTEAMINE] | > 10 µM | > 10 µM
N[C@@H](CS)C(=O)O [CYSTEINE] | > 20 µM | > 20 µM
O=c1cccc2n1C[C@@H]1CNC[C@H]2C1 [CYTISINICLINE] | > 20 µM | > 20 µM
N[C@H](Cc1c[nH]cn1)C(=O)O [D-HISTIDINE] | > 20 µM | > 20 µM
CCCCCCOC(=O)NC(=N)c1ccc(NCc2nc3cc(C(=O)N(CCC(=O)OCC)c4ccccn4)ccc3n2C)cc1 [DABIGATRAN ETEXILATE] | > 20 µM | > 20 µM

SMILES | IC50 | IC50 (read-out: pIC50 (converted))
CC(C)(C)c1nc(-c2cccc(NS(=O)(=O)c3c(F)cccc3F)c2F)c(-c2ccnc(N)n2)s1 [DABRAFENIB] | > 20 µM | > 20 µM
COc1cc2ncnc(Nc3ccc(F)c(Cl)c3)c2cc1NC(=O)/C=C/CN1CCCCC1 [DACOMITINIB ANHYDROUS] | > 20 µM | > 20 µM
NC(=O)c1ccn2c1CS[C@@H]2c1cccnc1 [DACOPAFANT] | > 20 µM | > 20 µM
Cn1c(=O)n(-c2ccc(C(C)(C)C#N)cc2)c2c3cc(-c4cnc5ccccc5c4)ccc3ncc21 [DACTOLISIB] | > 20 µM | > 20 µM
O=c1c(-c2ccc(O)cc2)coc2cc(O)ccc12 [DAIDZEIN] | > 20 µM | > 20 µM
CCC(CC)CC1(C(=O)Nc2ccccc2SC(=O)C(C)C)CCCCC1 [DALCETRAPIB] | > 20 µM | > 20 µM
CCNC(=O)NCCCOc1cccc(CN2CCCCC2)c1 [DALCOTIDINE] | > 20 µM | > 20 µM
Nc1ccncc1 [DALFAMPRIDINE] | > 20 µM | > 20 µM
C#C[C@]1(O)CC[C@H]2[C@@H]3CCC4=Cc5oncc5C[C@]4(C)[C@H]3CC[C@@]21C [DANAZOL] | > 20 µM | > 20 µM
O=C1c2cccc(O)c2C(=O)c2c(O)cccc21 [DANTHRON] | > 20 µM | > 20 µM
O=C1CN(/N=C/c2ccc(-c3ccc([N+](=O)[O-])cc3)o2)C(=O)N1 [DANTROLENE] | > 20 µM | > 20 µM
CO[C@@H](C(=O)N1Cc2[nH]nc(NC(=O)c3ccc(N4CCN(C)CC4)cc3)c2C1)c1ccccc1 [DANUSERTIB] | > 20 µM | > 20 µM
CCOc1ccc(Cc2cc([C@@H]3O[C@H](CO)[C@@H](O)[C@H](O)[C@H]3O)ccc2Cl)cc1 [DAPAGLIFLOZIN] | > 20 µM | > 20 µM
Cc1cc(C)c(Nc2ccnc(Nc3ccc(C#N)cc3)n2)c(C)c1 [DAPIVIRINE] | > 20 µM | > 20 µM
O=C(/C=C/c1cccnc1)NCCCCC1CCN(C(=O)c2ccccc2)CC1 [DAPORINAD] | > 20 µM | > 20 µM
CN(C)[C@@H](CCOc1cccc2ccccc12)c1ccccc1 [DAPOXETINE] | > 20 µM | > 20 µM
O=C(O)CNC(=O)C1C(=O)N(C2CCCCC2)C(=O)N(C2CCCCC2)C1=O [DAPRODUSTAT] | > 20 µM | > 20 µM
Nc1ccc(S(=O)(=O)c2ccc(N)cc2)cc1 [DAPSONE] | > 20 µM | > 20 µM
CCOC(=O)C1=C(C)NC(C)=C(C(=O)OCC)C1c1cccc2nonc12 [DARODIPINE] | > 20 µM | > 20 µM
CC(O)c1cc(C(=O)N[C@@H](C)Cn2ccc(-c3ccc(C#N)c(Cl)c3)n2)n[nH]1 (stereo partly specified) [DAROLUTAMIDE] | > 20 µM | > 20 µM
CC1(N)CCN(c2cccnc2NC(=O)c2nc(-c3ncccc3C(F)(F)F)cnc2N)CC1 [DAROVASERTIB] | > 20 µM | > 20 µM
Cc1nc(Nc2ncc(C(=O)Nc3c(C)cccc3Cl)s2)cc(N2CCN(CCO)CC2)n1 [DASATINIB] | > 20 µM | > 20 µM
N[C@@H]1CC[C@@H](c2ccc(Cl)c(Cl)c2)c2ccccc21 [DASOTRALINE] | > 20 µM | > 20 µM
COc1cccc2c1C(=O)c1c(O)c3c(c(O)c1C2=O)C[C@@](O)(C(C)=O)C[C@@H]3O[C@H]1C[C@H](N)[C@H](O)[C@H](C)O1 [DAUNORUBICIN] | > 20 µM | > 20 µM
COc1cc(CC(=O)NCCCc2ccc(C)c(C)c2)ccc1OCCN [DAVASAICIN] | > 20 µM | > 20 µM

SMILES | IC50 | IC50 (read-out: pIC50 (converted))
OC(C1=NCCN1)(c1ccc(Cl)cc1)c1ccccn1 (stereo unspecified) [DAZADROL] | > 20 µM | > 20 µM
Cc1c(Cn2ccnc2)c2ccccc2n1CCC(=O)O [DAZMEGREL] | > 20 µM | > 20 µM
CCN1CC(NC(=O)c2cc(Cl)c(N)cc2OC)CN1CC [DAZOPRIDE] | > 20 µM | > 20 µM
O=C(O)c1ccc(OCCn2ccnc2)cc1 [DAZOXIBEN] | > 20 µM | > 20 µM
CC(N)C(=O)c1ccccc1 (stereo unspecified) [DEALKYLATED DIETHYLPROPION] | > 20 µM | > 20 µM
N=C(N)N1CCc2ccccc2C1 [DEBRISOQUIN] | > 20 µM | > 20 µM
C[N+](C)(C)CCCCCCCCCC[N+](C)(C)C [DECAMETHONIUM] | > 20 µM | > 20 µM
CC[C@@](C)(Nc1ccnc(-c2c[nH]c3ncccc23)n1)C(=O)NCC(F)(F)F [DECERNOTINIB] | > 20 µM | > 20 µM
Nc1ncn([C@H]2C[C@H](O)[C@@H](CO)O2)c(=O)n1 [DECITABINE] | > 20 µM | > 20 µM
CCN(CC)CCNC(=O)c1ccc(N)c(Cl)c1 [DECLOPRAMIDE] | > 20 µM | > 20 µM
Nc1ccc(C#Cc2cnn3c(C(F)(F)F)cc(-c4ccc(C(F)(F)F)cc4)nc23)cn1 [DECOGLURANT] | > 20 µM | > 20 µM
CNC(=O)c1ccc(Nc2ncc(C(F)(F)F)c(NCc3nccnc3N(C)S(C)(=O)=O)n2)cc1 [DEFACTINIB] | > 20 µM | > 20 µM
Cc1c(O)c(=O)ccn1C [DEFERIPRONE] | > 20 µM | > 20 µM
CC(=O)N(O)CCCCCNC(=O)CCC(=O)N(O)CCCCCNC(=O)CCC(=O)N(O)CCCCCN [DEFEROXAMINE] | > 20 µM | > 20 µM
CC(=O)OCC(=O)[C@@]12N=C(C)O[C@@H]1C[C@H]1[C@@H]3CCC4=CC(=O)C=C[C@]4(C)[C@H]3[C@@H](O)C[C@@]12C [DEFLAZACORT] | > 20 µM | > 20 µM
COc1cc2c(cc1OC)[C@@H]1C(=O)c3ccc4c(c3O[C@@H]1CO2)C=CC(C)(C)O4 [DEGUELIN] | > 20 µM | > 20 µM
CC(=O)C1C(=O)C=C(C)OC1=O (stereo unspecified) [DEHYDROACETIC ACID] | > 20 µM | > 20 µM
CC(=O)O[C@H]1CC[C@@]2(C)C(=CC[C@@H]3[C@@H]2CC[C@]2(C)C(=O)CC[C@@H]32)C1 [DEHYDROEPIANDROSTERONE ACETATE] | > 20 µM | > 20 µM
CC(C)Nc1cccnc1N1CCN(C(=O)c2cc3cc(NS(C)(=O)=O)ccc3[nH]2)CC1 [DELAVIRDINE] | > 20 µM | > 20 µM
O=C1CN=C(c2ccccc2Cl)c2cc(Cl)ccc2N1 [DELORAZEPAM] | > 20 µM | > 20 µM
CN(C)[C@@H]1C(O)=C(C(N)=O)C(=O)[C@@]2(O)C(O)=C3C(=O)c4c(O)ccc(Cl)c4[C@@H](O)[C@H]3C[C@@H]12 [DEMECLOCYCLINE] | > 20 µM | > 20 µM
CC[N+](CC)(CC(=O)Nc1c(C)cccc1C)Cc1ccccc1 [DENATONIUM] | > 20 µM | > 20 µM
OC(Cn1ccnc1)c1ccc(CCc2ccccc2)cc1 (stereo unspecified) [DENZIMOL] | > 20 µM | > 20 µM
